According to patent publication EP4714938A1, “HDAC1/2 SELECTIVE INHIBITOR AND USE THEREOF” (Wigen Biomedicine Technology (Shanghai) Co., Ltd., priority 2023, dated 2024):
Read-outs that look alike come from different tables or passages of the source.

Tests used:
H3K 27 Acetyl lysine = test: Intracellular H3K 27 acetyl lysine level by ELISA in HeLa cells; format: cell-based; details: 24 h of treatment
Description: (§1) HeLa cells were seeded into a 96-well plate at 20000 cells/well. After overnight adherence culture, the serially diluted compound was added. After 24 h of treatment, intracellular levels of acetyl lysine and H3K 27 acetyl lysine were quantified by ELISA. Table 8. Effect of compound of the present disclosure on levels of acetyl lysine and H3K 27 acetyl lysine

[1] = test system: Mouse colon cancer MC38 cells; details: MC-38
Description: Female C57BL6N mice (aged 6 weeks, 18-22 g) were provided by Vital River Laboratory Animal Technology Co., Ltd. (China) and used one week after quarantine and acclimation. All animals were kept in a room at 23±2 °C with a relative humidity of 50±5%, artificial lighting was provided from 08:00 to 20:00 every day, and the air was exchanged 13-18 times per hour.
Mouse colon cancer MC38 cells were cultured conventionally in 1640 medium containing 10% fetal bovine serum in an incubator at 37 °C with 5% CO2. After being subcultured, the cells were collected when they reached the desired amount. The C57BL6N mice were subcutaneously injected with 2 × 10^6 MC38 cells on the right side to form tumors. After the tumors grew to about 100 mm^3, the animals were randomly grouped for administration. Tumor volumes were measured with a caliper on day 3, day 7, day 10, day 14, day 17, and day 21 after the administration. The ability of the compounds to inhibit tumor growth was evaluated according to the tumor growth inhibition rate (TGI) = 1 - (tumor volume on day 28 in treatment group - tumor volume on day 1 in treatment group)/(tumor volume on day 28 in control group - tumor volume on day 1 in control group). The toxicity of the compounds was evaluated according to the body weight and state of the mice.
The groups were as follows: 1) solvent control group; 2) PD-1+Reg group; 3) Compound 1 group; 4) Reference Compound group; 5) compound 1 (10mg/kg) and PD-1+Reg Combination group; 6) compound 1 (30mg/kg) and PD-1+Reg Combination group; 7) compound 1 (90mg/kg) and PD-1+Reg Combination group; 8) Reference Compound (10mg/kg) and PD-1+Reg Combination group; 9) Reference Compound (30mg/kg) and PD-1+Reg Combination group; 10) Reference Compound (90mg/kg) and PD-1+Reg Combination group, with 6 mice per group.
Reg represents Regorafenib PD-1 represents an anti-PD-1 antibody; IV represents administration via intravenous injection; PO represents oral administration; QD represents once-daily administration; QW represents once-weekly administration; CR represents complete remission (complete disappearance of the tumor after the dosing cycle is completed); PR represents partial response (tumor volume reduction exceeding 30% relative to the initial volume upon completion of the administration cycle); SD represents stable disease (tumor volume reduction or growth not exceeding 30% relative to the initial volume upon completion of the administration cycle); Died represents mouse died before the dosing cycle is completed; Administration period* is once daily (QD) for 10 consecutive days, followed by a 16-day off-treatment period; the once-weekly (QW) regimen is administered only on Day 1 and Day 8.

[2] = Stability in liver microsomes; format: in vitro ADME; details: for T1/2: 1 µM compound, 37 °C, NADPH regeneration system; for Clint: 1 µM
Description: After the 1 µM compound was individually incubated at 37 °C for various durations with […] liver microsomes from humans, monkeys, beagles, rats, or mice in the presence of an NADPH regeneration system, LC-MS-MS was used to analyze the remaining amount of the compound, and T1/2 was calculated. Table 10. Evaluation results of stability of compounds of the present disclosure in human and mouse liver microsomes

HDAC1 = HDAC1 (Homo sapiens, UniProt Q13547); test: HDAC enzyme inhibitory activity, FRET method; format: biochemical
Description: (§2) The compounds of the present disclosure were assayed for enzyme inhibitory activity against various subtypes of HDAC enzymes by the FRET method. The various subtypes of HDAC enzymes were obtained either through purification or direct purchase of assay kits.
(§3) The specific method was as follows: The enzyme was added to a 384-well plate, and a reaction buffer was added to the control well. Serially diluted DMSO sample solutions were added to the reaction wells, and the plate was incubated at room temperature for 15 min. Then a chromogenic agent was added to stop the reaction, and fluorescence was generated. The fluorescence intensity was measured using an EnVision multi-label microplate reader (excitation: 355 nm, emission: 460 nm). The endpoint value was read after the color development reached stability. The inhibition IC50 of the compounds was calculated using GraphPad Prism4 software relative to DMSO.

Acetyl lysine = test: Intracellular acetyl lysine level by ELISA in HeLa cells; format: cell-based; details: 24 h of treatment
Description: as §1

HDAC2 = HDAC2 (Homo sapiens, UniProt Q92769); test: HDAC enzyme inhibitory activity, FRET method; format: biochemical
Description: as §2, §3

Jurkat cell = test: Inhibition of cell proliferation (CTG, intracellular ATP); format: cell-based; details: 72 h
Description: Jurkat or 293T cells were seeded into a 96-well plate at 3000 cells/well. After overnight adherence culture, the serially diluted compound in DMSO was added. After 72 h, the intracellular ATP level was determined by CTG. The IC50 for the inhibition of cell proliferation by the compounds was calculated compared to the DMSO group. Table 7. Inhibitory activity of compounds of the present disclosure against Jurkat/293T cell proliferation (IC50, µM)

[3] = test system: Mouse colon cancer CT-26 cells; details: for Tumor response, number of mice (CR/PR/SD): 6 mice per group; for TGI(%): QD for 14 consecutive days, PO
Description: Female BALB/c mice (aged 6 weeks, 18-22 g) were provided by Vital River Laboratory Animal Technology Co., Ltd. (China) and used one week after quarantine and acclimation. All animals were kept in a room at 23±2 °C with a relative humidity of 50±5%, artificial lighting was provided from 08:00 to 20:00 every day, and the air was exchanged 13-18 times per hour.
Mouse colon cancer CT-26 cells were cultured conventionally in 1640 medium containing 10% fetal bovine serum in an incubator at 37 °C with 5% CO2. After being subcultured, the cells were collected when they reached the desired amount. The BALB/c mice were subcutaneously injected with 2 × 10^5 CT-26 cells on the right side to form tumors. After the tumors grew to about 100 mm^3, the animals were randomly grouped for administration. Tumor volumes were measured with a caliper on day 3, day 7, day 10, day 14, day 17, and day 21 after the administration. The ability of the compounds to inhibit tumor growth was evaluated according to the tumor growth inhibition rate (TGI) = 1 - (tumor volume on day 28 in treatment group - tumor volume on day 1 in treatment group)/(tumor volume on day 28 in control group - tumor volume on day 1 in control group). The toxicity of the compounds was evaluated according to the body weight and state of the mice.

HDAC3 = HDAC3 (Homo sapiens, UniProt O15379); test: HDAC enzyme inhibitory activity, FRET method; format: biochemical
Description: as §2, §3

HDAC10 = target: T1, HDAC10 (Homo sapiens, UniProt Q969S8); details: read-out: IC50 HDAC subtype 10; Table 6
T1 sequence (Q969S8 1-669): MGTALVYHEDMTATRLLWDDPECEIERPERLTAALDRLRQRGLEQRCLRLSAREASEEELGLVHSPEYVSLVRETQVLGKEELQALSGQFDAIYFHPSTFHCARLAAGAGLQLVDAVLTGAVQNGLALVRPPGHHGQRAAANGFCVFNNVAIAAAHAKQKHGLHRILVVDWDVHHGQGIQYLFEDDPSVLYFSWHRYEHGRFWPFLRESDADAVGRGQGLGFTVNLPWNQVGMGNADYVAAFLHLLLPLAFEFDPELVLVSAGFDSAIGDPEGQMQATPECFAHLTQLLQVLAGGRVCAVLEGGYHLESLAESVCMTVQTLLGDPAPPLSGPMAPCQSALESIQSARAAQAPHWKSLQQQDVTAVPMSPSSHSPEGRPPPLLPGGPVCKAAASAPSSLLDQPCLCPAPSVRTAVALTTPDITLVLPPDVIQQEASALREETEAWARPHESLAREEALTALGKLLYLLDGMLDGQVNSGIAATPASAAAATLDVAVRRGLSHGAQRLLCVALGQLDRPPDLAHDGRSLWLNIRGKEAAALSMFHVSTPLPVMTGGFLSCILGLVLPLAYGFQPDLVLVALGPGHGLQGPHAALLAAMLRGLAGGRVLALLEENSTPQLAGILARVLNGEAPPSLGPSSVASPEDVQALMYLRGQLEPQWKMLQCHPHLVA
Description: as §2, §3

Chain of HDAC1 (Q13547 whole entry, species assumed): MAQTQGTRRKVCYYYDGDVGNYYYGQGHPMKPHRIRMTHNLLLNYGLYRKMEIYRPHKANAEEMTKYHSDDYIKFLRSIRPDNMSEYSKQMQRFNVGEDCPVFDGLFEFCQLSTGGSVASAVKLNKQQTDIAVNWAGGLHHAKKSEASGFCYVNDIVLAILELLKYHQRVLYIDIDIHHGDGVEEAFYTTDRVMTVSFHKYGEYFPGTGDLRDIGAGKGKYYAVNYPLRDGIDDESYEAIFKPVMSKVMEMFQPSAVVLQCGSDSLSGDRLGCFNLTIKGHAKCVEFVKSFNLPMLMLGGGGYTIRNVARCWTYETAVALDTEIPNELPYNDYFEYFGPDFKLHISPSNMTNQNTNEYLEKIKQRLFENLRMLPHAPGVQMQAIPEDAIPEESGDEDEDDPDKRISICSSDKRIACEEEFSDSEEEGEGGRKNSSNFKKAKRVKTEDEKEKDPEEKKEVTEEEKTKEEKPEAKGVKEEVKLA
Chain of HDAC2 (Q92769 whole entry, species assumed): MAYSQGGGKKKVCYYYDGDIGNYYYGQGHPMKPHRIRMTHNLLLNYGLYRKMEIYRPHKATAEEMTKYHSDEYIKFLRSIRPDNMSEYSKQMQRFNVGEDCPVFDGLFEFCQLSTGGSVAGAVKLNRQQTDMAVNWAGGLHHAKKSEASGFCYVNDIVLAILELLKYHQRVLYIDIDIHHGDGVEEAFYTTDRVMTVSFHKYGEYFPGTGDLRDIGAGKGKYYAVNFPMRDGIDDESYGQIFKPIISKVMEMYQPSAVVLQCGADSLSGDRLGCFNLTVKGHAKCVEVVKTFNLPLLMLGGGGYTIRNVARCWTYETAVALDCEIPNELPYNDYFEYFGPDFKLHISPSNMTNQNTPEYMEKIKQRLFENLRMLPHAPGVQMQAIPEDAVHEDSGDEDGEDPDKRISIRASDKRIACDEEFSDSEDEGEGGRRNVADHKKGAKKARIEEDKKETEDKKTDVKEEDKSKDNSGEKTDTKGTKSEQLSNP
Chain of HDAC3 (O15379 whole entry, species assumed): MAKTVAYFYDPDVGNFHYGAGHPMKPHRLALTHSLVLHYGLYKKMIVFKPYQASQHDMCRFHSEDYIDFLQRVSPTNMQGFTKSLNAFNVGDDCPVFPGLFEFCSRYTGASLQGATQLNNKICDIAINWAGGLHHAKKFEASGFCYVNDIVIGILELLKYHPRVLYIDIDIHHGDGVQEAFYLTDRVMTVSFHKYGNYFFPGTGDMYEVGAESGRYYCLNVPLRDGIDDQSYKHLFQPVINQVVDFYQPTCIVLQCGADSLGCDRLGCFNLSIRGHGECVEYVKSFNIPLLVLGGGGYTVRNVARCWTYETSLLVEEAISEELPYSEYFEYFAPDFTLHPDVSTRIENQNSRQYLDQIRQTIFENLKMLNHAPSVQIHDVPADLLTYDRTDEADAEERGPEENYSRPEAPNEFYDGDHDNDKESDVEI
Chain of HDAC3 (Q9Y618 395-489 partner limits assumed, species assumed): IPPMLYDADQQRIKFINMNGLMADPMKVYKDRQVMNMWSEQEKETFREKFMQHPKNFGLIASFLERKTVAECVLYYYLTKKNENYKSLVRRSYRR

CS(=O)(=O)Nc1ccc(C(=O)Nc2cc(-c3ccc(F)cc3)ccc2N)cc1 [Reference Compound, N-(4-amino-4'-fluoro-[1,1'-biphenyl]-3-yl)-4-(S-methylsulfonamido) benzamide, reference compound]
H3K 27 Acetyl lysine Maximum (%) (H3K 27 Acetyl lysine): 190%
H3K 27 Acetyl lysine Minimum effective concentration (H3K 27 Acetyl lysine): 80 nM
Change in body weight(%) ([1]; monotherapy 90 mg/kg QD PO): 17.04 ± 1.54%
Tumor response, number of mice (CR/PR/SD) ([1]; monotherapy 90 mg/kg QD PO, CR complete remission, PR partial response, SD stable disease, 6 mice per group): 1PR
TGI(%) ([1]; monotherapy 90 mg/kg, QD for 10 consecutive days, PO): 73.90%
Clliver ([2]; Human liver microsomes): 11.68 mL/min/kg
T1/2 ([2]; Human liver microsomes): 1.082 h
Clint ([2]; Human liver microsomes): 26.78 mL/min/kg
Clliver ([2]; Mouse liver microsomes): 9.20 mL/min/kg
T1/2 ([2]; Mouse liver microsomes): 8.874 h
Clint ([2]; Mouse liver microsomes): 10.25 mL/min/kg
IC50 (HDAC1; Table 5, read-out: IC50 HDAC1): 30 to 300 nM
IC50 (HDAC1; Table 6, read-out: IC50 HDAC subtype 1): 44.4 nM
Acetyl lysine Maximum (%) (Acetyl lysine): 350%
Acetyl lysine Minimum effective concentration (Acetyl lysine): 80 nM
IC50 (HDAC2; Table 5, read-out: IC50 HDAC2): 30 to 300 nM
IC50 (HDAC2; Table 6, read-out: IC50 HDAC subtype 2): 178 nM
IC50 (Jurkat cell): 1940 nM
Change in body weight(%) ([3]; monotherapy 30 mg/kg QD PO): 4.73±1.54%
Tumor response, number of mice (CR/PR/SD) ([3]; monotherapy 30 mg/kg QD PO): 1PR
TGI(%) ([3]; monotherapy 30 mg/kg): 56.10%
Change in body weight(%) ([3]; monotherapy 90 mg/kg QD PO): -3.53±2.89%
Tumor response, number of mice (CR/PR/SD) ([3]; monotherapy 90 mg/kg QD PO): 1PR+2SD
TGI(%) ([3]; monotherapy 90 mg/kg): 95.93%
IC50 (HDAC3; Table 5, read-out: IC50 HDAC3): > 3000 nM
IC50 (HDAC3; Table 6, read-out: IC50 HDAC subtype 3): 8280 nM
IC50 (HDAC10): 83.2 nM
